Data taken from ChEMBL document CHEMBL1201862, “PubChem BioAssay data set” (2004).
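Values below derive from 48-hour exposures of cells grown in 96-well plates, with endpoints linearly interpolated between the two concentrations bracketing the appropriate inhibition level. GI50 marks 50% less growth.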 Active and inactive are the calls of the source. Rule as the data show it: active = GI50 up to about 1.1 µM and inactive = higher.

Key:
Assay in all cases: growth of human tumour cells (NCI), 48 h
UACC-257 = test system: UACC-257
SF-539 = test system: SF-539
IGROV-1 = test system: IGROV-1
HOP-62 = test system: HOP-62
M14 = test system: M14
NCI-H226 = test system: NCI-H226
OVCAR-8 = test system: OVCAR-8
MDA-MB-435 = test system: MDA-MB-435
SK-OV-3 = test system: SK-OV-3
Malme-3M = test system: Malme-3M
RXF 393 = test system: RXF 393
NCI-H460 = test system: NCI-H460
HCT-15 = test system: HCT-15
MDA-MB-231 = test system: MDA-MB-231
CCRF-CEM = test system: CCRF-CEM
SK-MEL-2 = test system: SK-MEL-2
SW-620 = test system: SW-620
NCI-H522 = test system: NCI-H522
UO-31 = test system: UO-31
T47D = test system: T47D

SMILES	GI50 (UACC-257)	GI50 (SF-539)	GI50 (IGROV-1)	GI50 (HOP-62)	GI50 (M14)	GI50 (NCI-H226)	GI50 (OVCAR-8)	GI50 (MDA-MB-435)	GI50 (SK-OV-3)	GI50 (Malme-3M)	GI50 (RXF 393)	GI50 (NCI-H460)	GI50 (HCT-15)	GI50 (MDA-MB-231)	GI50 (CCRF-CEM)	GI50 (SK-MEL-2)	GI50 (SW-620)	GI50 (NCI-H522)	GI50 (UO-31)	GI50 (T47D)
NCCc1c[nH]c2ccc(OC(=O)C(=O)O)cc12	> 100 µM (inactive)	> 100 µM (inactive)	> 100 µM (inactive)	> 100 µM (inactive)	> 100 µM (inactive)	> 100 µM (inactive)	> 100 µM (inactive)	> 100 µM (inactive)	> 100 µM (inactive)	> 100 µM (inactive)	> 100 µM (inactive)	> 100 µM (inactive)	> 100 µM	> 100 µM (inactive)	> 100 µM (inactive)	> 100 µM (inactive)	> 100 µM (inactive)	> 100 µM (inactive)	> 100 µM (inactive)	> 100 µM (inactive)
CC1C(c2ccc3c(c2)OCO3)c2cc3c(cc2OC1N1CCOCC1)OCO3 (stereo not given)	35.4 µM (inactive)	18.3 µM (inactive)	28 µM (inactive)	34.4 µM (inactive)	24.7 µM (inactive)	22 µM (inactive)	32.5 µM (inactive)	5.6 µM (inactive)	49.9 µM (inactive)	28.8 µM (inactive)	20.4 µM (inactive)	29.2 µM (inactive)	19.3 µM	18.4 µM (inactive)	19 µM (inactive)	19.9 µM (inactive)	25.9 µM (inactive)	9.04 µM (inactive)	18.1 µM (inactive)	13.6 µM (inactive)
COc1cc(C2c3cc4c(cc3OC(N3CCCC3)C2C)OCO4)cc(OC)c1OC (stereo not given)	1.07 µM (active)	0.246 µM (active)	0.813 µM (active)	0.596 µM (active)	0.34 µM (active)	0.433 µM (active)	0.832 µM (active)	0.177 µM (active)	0.628 µM (active)	0.578 µM (active)	0.286 µM (active)	0.767 µM (active)	0.526 µM	0.697 µM (active)	0.502 µM (active)	0.394 µM (active)	0.366 µM (active)	0.548 µM (active)	1.91 µM (inactive)	63.1 µM (inactive)
Cc1nc(-n2nc(-c3ccccc3)cc2-c2ccccc2)sc1C(/C=C\c1ccc([N+](=O)[O-])cc1)=N/NC(=S)NN	> 42.1 µM (inactive)	24.2 µM (inactive)	40.7 µM (inactive)	22 µM (inactive)	34.4 µM (inactive)	> 46.8 µM (inactive)	16.7 µM (inactive)	> 100 µM (inactive)	> 85.7 µM (inactive)	> 58.6 µM (inactive)	37.4 µM (inactive)	33.5 µM (inactive)	22.8 µM	> 10 µM (inactive)	> 50.8 µM (inactive)	44.1 µM (inactive)	> 74 µM (inactive)	18.2 µM (inactive)	> 43.9 µM (inactive)	24.9 µM (inactive)
O=C1c2ccccc2CC12Cc1ccccc1C2	18.9 µM (inactive)	> 100 µM (inactive)	87.5 µM (inactive)	83.9 µM (inactive)	49.1 µM (inactive)	> 100 µM (inactive)	80.4 µM (inactive)	55 µM (inactive)	> 100 µM (inactive)	70 µM (inactive)	20.6 µM (inactive)	57.9 µM (inactive)	49.7 µM	66.7 µM (inactive)	48.3 µM (inactive)	45.3 µM (inactive)	> 100 µM (inactive)	36.6 µM (inactive)	40.1 µM (inactive)	36.2 µM (inactive)
COc1ccc(-c2cc(-c3cc(OC)c(OC)c(OC)c3)cc(-c3cc4ccccc4oc3=O)n2)cc1	16.7 µM (inactive)	2.76 µM (inactive)	7.06 µM (inactive)	2.25 µM (inactive)	16.6 µM (inactive)	3.95 µM (inactive)	4.38 µM (inactive)	16.7 µM (inactive)	3.83 µM (inactive)	5.77 µM (inactive)	3.24 µM (inactive)	5.78 µM (inactive)	30.9 µM	2.3 µM (inactive)	> 100 µM (inactive)	20 µM (inactive)	25.2 µM (inactive)	6.85 µM (inactive)	8.28 µM (inactive)	7.19 µM (inactive)
N#CC(NCCc1ccccc1)c1ccccc1 (stereo not given)	> 100 µM (inactive)	> 100 µM (inactive)	> 100 µM (inactive)	> 100 µM (inactive)	> 100 µM (inactive)	> 100 µM (inactive)	> 100 µM (inactive)	> 100 µM (inactive)	> 100 µM (inactive)	> 100 µM (inactive)	> 100 µM (inactive)	> 100 µM (inactive)	> 100 µM	> 100 µM (inactive)	> 100 µM (inactive)	> 100 µM (inactive)	> 100 µM (inactive)	> 100 µM (inactive)	> 100 µM (inactive)	> 100 µM (inactive)
CC(NS(C)(=O)=O)c1ccccc1 (stereo not given)	> 100 µM (inactive)	> 100 µM (inactive)	> 100 µM (inactive)	> 100 µM (inactive)	> 100 µM (inactive)	> 100 µM (inactive)	> 100 µM (inactive)	> 100 µM (inactive)	> 10 µM (inactive)	> 100 µM (inactive)	> 100 µM (inactive)	> 100 µM (inactive)	> 100 µM	> 100 µM (inactive)	> 100 µM (inactive)	> 100 µM (inactive)	> 100 µM (inactive)	> 100 µM (inactive)	> 100 µM (inactive)	> 100 µM (inactive)
CNCCCNC1(c2cc3ccccc3s2)CCCCC1	1.76 µM (inactive)	2.36 µM (inactive)	12.8 µM (inactive)	8.93 µM (inactive)	3.8 µM (inactive)	19.5 µM (inactive)	14.5 µM (inactive)	2.55 µM (inactive)	15.7 µM (inactive)	2.28 µM (inactive)	1.36 µM (inactive)	2.86 µM (inactive)	8.43 µM	2.99 µM (inactive)	1.66 µM (inactive)	4.59 µM (inactive)	12.3 µM (inactive)	5.64 µM (inactive)	2.32 µM (inactive)	4.92 µM (inactive)
COc1cc(/C=C/C(=O)c2c([O-])on[n+]2-c2ccccc2)ccc1O	3.87 µM (inactive)	2.58 µM (inactive)	2.86 µM (inactive)	4.4 µM (inactive)	3.43 µM (inactive)	5.53 µM (inactive)	2.4 µM (inactive)	2.75 µM (inactive)	3.73 µM (inactive)	2.78 µM (inactive)	2 µM (inactive)	2.07 µM (inactive)	2.13 µM	2.98 µM (inactive)	1.37 µM (inactive)	2.31 µM (inactive)	2.18 µM (inactive)	1.73 µM (inactive)	3.25 µM (inactive)	2.77 µM (inactive)
CC(C)(C)CC(C)(C)NC(=S)NO	> 100 µM (inactive)	> 100 µM (inactive)	> 100 µM (inactive)	> 100 µM (inactive)	> 100 µM (inactive)	> 100 µM (inactive)	> 100 µM (inactive)	> 100 µM (inactive)	> 100 µM (inactive)	> 100 µM (inactive)	> 100 µM (inactive)	> 100 µM (inactive)	> 100 µM	> 100 µM (inactive)	> 100 µM (inactive)	> 100 µM (inactive)	> 100 µM (inactive)	> 100 µM (inactive)	> 100 µM (inactive)	> 100 µM (inactive)
O=[N+]([O-])c1ccc(C2Nn3c(nnc3-c3cccc([N+](=O)[O-])c3)S2)cc1 (stereo not given)	> 100 µM (inactive)	9.08 µM (inactive)	> 100 µM (inactive)	> 100 µM (inactive)	> 100 µM (inactive)	0.0735 µM (active)	92.3 µM (inactive)	51.5 µM (inactive)	> 100 µM (inactive)	> 100 µM (inactive)	> 100 µM (inactive)	> 100 µM (inactive)	> 100 µM	> 100 µM (inactive)	36.8 µM (inactive)	66.7 µM (inactive)	71.9 µM (inactive)	> 100 µM (inactive)	> 100 µM (inactive)	49.4 µM (inactive)
C[C@]12CC[C@@H]3c4ccc(O)cc4CC[C@H]3[C@@H]1CC[C@@H]2OP(=O)(O)O	> 100 µM (inactive)	> 100 µM (inactive)	> 100 µM (inactive)	> 100 µM (inactive)	> 100 µM (inactive)	> 100 µM (inactive)	> 100 µM (inactive)	> 100 µM (inactive)	> 100 µM (inactive)	> 100 µM (inactive)	> 100 µM (inactive)	> 100 µM (inactive)	> 100 µM	> 100 µM (inactive)	> 100 µM (inactive)	> 100 µM (inactive)	> 100 µM (inactive)	> 100 µM (inactive)	> 100 µM (inactive)	> 100 µM (inactive)
COc1cc2c(/C=C3/C(=O)N(c4ccccc4)c4ccccc43)c(Cl)[nH]c2cc1C	3.82 µM (inactive)	2.77 µM (inactive)	2.7 µM (inactive)	3.07 µM (inactive)	3.18 µM (inactive)	24.3 µM (inactive)	2.12 µM (inactive)	0.998 µM (active)	1.89 µM (inactive)	4.29 µM (inactive)	4.29 µM (inactive)	2.73 µM (inactive)	2.83 µM	3.21 µM (inactive)	1.71 µM (inactive)	2.72 µM (inactive)	2.84 µM (inactive)	1.44 µM (inactive)	2.88 µM (inactive)	2.07 µM (inactive)
